Laboratory results reported in patent US5637582A, “Peripheral circulation improving agent” (priority 1992, dated 1997).

Columns and labels:
hind leg edema = assay: Hind leg frostbite model: model of Raynaud's disease (Experimental Example 7); assay type: in vivo, male SD rat
Method: (Hind leg frostbite model: Model of Raynaud's disease)
Left hind leg of male SD rat (one group: 3 to 5 rats) was dipped in dry ice-ethanol for 2 seconds, and after 30 minutes, 30 mg/kg of a test compound dissolved in pure water was administered to the rat and then orally administered twice a day for 6 days continuously. At the final day of the experiment, volumes of both hind legs (below ankle joint) of the rat were measured by a water substitution method and an edema ratio was calculated from the following equation. Also, an inhibition ratio of the test compound administered group was obtained by comparing the edema ratio of the group in which the test compound was not administered. [formula]
The present model is disclosed, for example, in Hayashi et al, "Pharmacological Studies on Niceritrol (10), The Effects on Experimental Models of Peripherally Circulatory Insufficiency", Applied Pharmacology, 24 (6): 859-864 (1982), noting particularly the section "2. Effect on an experimental frostbite model" on page 860.

femoral artery [1] = assay: Femoral arterial blood flow, hind leg cooling model of Raynaud's disease (Experimental Example 5); assay type: in vivo, male SD rat
Method: (Lower limbs peripheral circulation disorder model due to hind leg cooling: Model of Raynaud's disease)
A catheter was inserted into left common carotid artery of a male SD rat (one group consisting of 5 rats) under anesthesia, and the arterial blood pressure was measured with a standard pressure transducer (manufactured by Nihon Koden. TP-200T, trade name) through a catheter attached to the artery. After isolating the left femoral artery from the peripheral connective tissue, a flow probe (HDP 10-20R: F 1.0 mm) of a Doppler blood flow meter (manufactured by Crystal Biotec Co., PD20, trade name) was attached thereto and was connected to the Doppler blood flow meter to measure the artery blood flow. After the operation, at the time that the state became stable, the left hind leg was exposed to a perfused solution at 10° C. to decrease the femoral arterial blood flow. After 30 minutes, 1 ml/kg of a 0.9% NaCl solution or 300 μg/kg of the test compound A was intravenously administered and the state was observed. In the case of Beraprost Na, continuous injection in an amount of […] was carried out after 30 minutes from cooling. The compounds to be used were each dissolved in a 0.9% NaCl solution.
The present model is disclosed, for example, in Nishio et al, "Effect of Beraprost Sodium on Peripheral Circulatory Disturbances Induced by Various Stimuli", Arzneim.-Forsch./Drug Res., 39 (II), Nr. 10 (1989), pp. 1229-1234. Note particularly the section "2.4. Sphygmometry in rat hind paw", at page 1230.

mouse = assay: Acute oral toxicity in mouse; assay type: in vivo; settings: 1000 mg/kg oral, even after 2 days
Text: Furthermore, a (-)-cis-1,5-benzothiazepine derivative according to formula (I) has low toxicity and can be used safely.

femoral artery [2] = assay: Change of femoral arterial blood flow in anesthetized dogs (Experimental Example 4); assay type: in vivo, dog; settings: 100 μg/kg i.v.
Method: (§2) Each test compound was intravenously administered to adult dogs (one group consisting of 2 or 4 dogs) under anesthesia and artificial respiration at a dose of 100 μg/kg body weight. Femoral arterial blood flow, vertebral arterial blood flow and arterial blood pressure were measured 1, 3, 5, 10, 20 and 30 minutes after the administration. The femoral arterial blood flow and vertebral arterial blood flow were measured with an electromagnetic blood flowmeter (manufactured by Nihon Koden, MFV-2100, trade name) through a flow probe attached to the femoral artery or vertebral artery. The arterial blood pressure was measured with a pressure transducer (manufactured by Millar, MICRO-TIP, Model SPC-350) through a catheter attached to the brachial artery.
(§3) Changes of the femoral arterial blood flow, vertebral arterial blood flow and arterial blood pressure were estimated by comparing the values measured before and after the administration of the test compound.

femoral artery [3] = assay: Maximum increase in femoral arterial blood flow in anesthetized dogs, cumulative i.v. dosing (Experimental Example 3); assay type: in vivo, dog; settings: maximum during 60 min
Method: (§1) Adult dogs (one group consisting of 5 dogs) were intravenously given the test compound under anesthesia and artificial respiration successively at intervals of 60 minutes so that the dose can be 10, 30, 100, 300 and 1000 μg/kg body weight, and the blood flow of femoral artery was measured with a time course. […] An increase in the femoral arterial blood flow was calculated by subtracting the blood flow before the administration of the first dose of test compound as the standard value (the base line) from that of maximum during an interval of 60 minutes after each administration.

femoral artery [4] = assay: Time course of femoral arterial blood flow in dogs after i.v. administration (Experimental Example 2); assay type: in vivo, dog
vertebral artery = assay: Change of vertebral arterial blood flow in anesthetized dogs (Experimental Example 4); settings: 100 μg/kg i.v.
Method: as §2, §3

arterial blood pressure = test system: arterial blood pressure; design: species or system male SD rat; settings: rat, in vivo
Method: (Lower limbs peripheral circulation disorder model due to hind leg cooling: Model of Raynaud's disease) […] TP-200T, trade name) through a catheter attached to the artery. […] After the operation, at the time that the state became stable, the left hind leg was exposed to a perfused solution at 10° C. to decrease the femoral arterial blood flow. […] In the case of Beraprost Na, continuous injection in an amount of […] was carried out after 30 minutes from cooling. […] The present model is disclosed, for example, in Nishio et al, "Effect of Beraprost Sodium on Peripheral Circulatory Disturbances Induced by Various Stimuli", Arzneim.-Forsch./Drug Res., 39 (II), Nr. 10 (1989), pp. 1229-1234. Note particularly the section "2.4. Sphygmometry in rat hind paw", at page 1230.

femoral artery [5] = assay: Increase in femoral arterial blood flow in anesthetized dogs, cumulative i.v. dosing (Experimental Example 1); assay type: in vivo, dog; settings: 60 min after administration
Method: as §1, with “a dog)” for “5 dogs)”, “100 and” for “100,”, “300” for “300 and 1000”, “that” for “that of maximum during an interval of”

[6] = 30 mg/kg, orally twice a day for 6 days

CC(=O)O[C@@H]1C(=O)N(CCN(C)C)c2ccc(C)cc2S[C@@H]1c1ccc(C)cc1 [Compound A]
% Inhibition of edema (hind leg edema; [6]): 27% | Edema (hind leg edema; [6]): 32 ± 8% | edema inhibition activity (hind leg edema; rat hind leg frostbite model, in words): showed edema inhibition activity | Femoral Arterial Blood Flow change (femoral artery [1]; 0 min (before cooling and administration; 30 min = 0)): 1.364 Δ ml/min | Femoral Arterial Blood Flow change (femoral artery [1]; 40 min, given at 30 min: A 300 μg/kg i.v., J 0.3 μg/kg/ml continuous injection): 0.072 Δ ml/min | Femoral Arterial Blood Flow change (femoral artery [1]; 50 min, given at 30 min: A 300 μg/kg i.v., J 0.3 μg/kg/ml continuous injection): 0.276 Δ ml/min | Femoral Arterial Blood Flow change (femoral artery [1]; 60 min, given at 30 min: A 300 μg/kg i.v., J 0.3 μg/kg/ml continuous injection): 0.416 Δ ml/min | Femoral Arterial Blood Flow change (femoral artery [1]; 70 min, given at 30 min: A 300 μg/kg i.v., J 0.3 μg/kg/ml continuous injection): 0.452 Δ ml/min | Femoral Arterial Blood Flow change (femoral artery [1]; 80 min, given at 30 min: A 300 μg/kg i.v., J 0.3 μg/kg/ml continuous injection): 0.452 Δ ml/min | Femoral Arterial Blood Flow change (femoral artery [1]; 90 min, given at 30 min: A 300 μg/kg i.v., J 0.3 μg/kg/ml continuous injection): 0.496 Δ ml/min | lethal toxicity (mouse): no lethal toxicity was observed | Femoral Arterial Blood Flow change (femoral artery [2]; 1 min): 3.5 Δ ml/min | Femoral Arterial Blood Flow change (femoral artery [2]; 3 min): 5.5 Δ ml/min | Femoral Arterial Blood Flow change (femoral artery [2]; 5 min): 7.8 Δ ml/min | Femoral Arterial Blood Flow change (femoral artery [2]; 10 min): 13.0 Δ ml/min | Femoral Arterial Blood Flow change (femoral artery [2]; 20 min): 21.5 Δ ml/min | Femoral Arterial Blood Flow change (femoral artery [2]; 30 min): 28.0 Δ ml/min | AUC60 of the femoral arterial blood flow (femoral artery [2]; 60 minutes after administration): 1538.4 mL | femoral arterial blood flow increasing activity (femoral artery [2]; even after 30 minutes, in words): excellent femoral arterial blood flow increasing activity | Increase in femoral arterial blood flow (femoral artery [3]; 10 μg/kg i.v.): 5.6 mL/min | Increase in femoral arterial blood flow (femoral artery [3]; 30 μg/kg i.v.): 40.4 mL/min | Increase in femoral arterial blood flow (femoral artery [3]; 100 μg/kg i.v.): 55.2 mL/min | Increase in femoral arterial blood flow (femoral artery [3]; 300 μg/kg i.v.): 61.4 mL/min | Blood flow (femoral artery) (femoral artery [4]; 100 μg/kg i.v., 30 min): 136.3 mL/min | Increase in blood flow (femoral artery) (femoral artery [4]; 100 μg/kg i.v., 30 min): 55.5 mL/min | Blood flow (femoral artery) (femoral artery [4]; 100 μg/kg i.v., 60 min): 146.3 mL/min | Increase in blood flow (femoral artery) (femoral artery [4]; 100 μg/kg i.v., 60 min): 65.5 mL/min | Blood flow (femoral artery) (femoral artery [4]; 100 μg/kg i.v., 120 min): 143.5 mL/min | Increase in blood flow (femoral artery) (femoral artery [4]; 100 μg/kg i.v., 120 min): 62.8 mL/min | Blood flow (femoral artery) (femoral artery [4]; 100 μg/kg i.v., 180 min): 141.3 mL/min | Increase in blood flow (femoral artery) (femoral artery [4]; 100 μg/kg i.v., 180 min): 60.5 mL/min | Blood flow (femoral artery) (femoral artery [4]; 100 μg/kg i.v., 240 min): 141.5 mL/min | Increase in blood flow (femoral artery) (femoral artery [4]; 100 μg/kg i.v., 240 min): 60.8 mL/min | Blood flow (femoral artery) (femoral artery [4]; 100 μg/kg i.v., 300 min): 136.3 mL/min | Increase in blood flow (femoral artery) (femoral artery [4]; 100 μg/kg i.v., 300 min): 55.5 mL/min | Blood flow (femoral artery) (femoral artery [4]; before administration (baseline)): 80.8 mL/min | Vertebral Arterial Blood Flow change (side effects) (vertebral artery; 1 min): 0.3 Δ ml/min | Vertebral Arterial Blood Flow change (side effects) (vertebral artery; 3 min): 0.0 Δ ml/min | Vertebral Arterial Blood Flow change (side effects) (vertebral artery; 5 min): -0.5 Δ ml/min | Vertebral Arterial Blood Flow change (side effects) (vertebral artery; 10 min): -1.5 Δ ml/min | Vertebral Arterial Blood Flow change (side effects) (vertebral artery; 20 min): -2.8 Δ ml/min | Vertebral Arterial Blood Flow change (side effects) (vertebral artery; 30 min): -2.5 Δ ml/min | effect on vertebral arterial blood flow (vertebral artery; G and H: one minute after, in words): substantially no effect | Mean Arterial Pressure change (arterial blood pressure): 0.00 Δ mmHg | Increase in femoral arterial blood flow (femoral artery [5]; 10 μg/kg i.v.): 13 mL/min | Increase in femoral arterial blood flow (femoral artery [5]; 30 μg/kg i.v.): 30 mL/min | Increase in femoral arterial blood flow (femoral artery [5]; 100 μg/kg i.v.): 34 mL/min | Increase in femoral arterial blood flow (femoral artery [5]; 300 μg/kg i.v.): 32 mL/min
